System: EoL-1 (human eosinophilic leukaemia cell line) cells
Test: TNF-α-induced cytokine release, EoL-1 cells differentiated with PMA (Luminex)
Assay type: cell-based
Design: key to IL-1α (PMA), p of decrement / IL-1β (PMA), p of decrement / IL-1ra (PMA), p of decrement / IL-5 (PMA), p of decrement / IL-7 (PMA), p of decrement / IL-8 (PMA), p of decrement / IP-10 (PMA), p of decrement / MCP-1 (PMA), p of decrement / MIP-1β (PMA), p of decrement / RANTES (PMA), p of decrement / VEGF (PMA), p of decrement / Fractalkine (PMA), p of decrement / MIP-1α (PMA), p of decrement: ns = non significant
Experimental: EoL-1 (human eosinophilic leukaemia cell line) cells (Saito et al., 1985; Mayumi, 1992) were maintained in RPMI-1640 medium with L-glutamine supplemented with 10% (v/v) FBS at 37° C. in a humidified atmosphere with 5% CO2. Where indicated, 24 h before the experiment 25 ng/mL PMA ((phorbol 12-myristate 13-acetate, purchased from Sigma Aldrich) was added to the medium to induce eosinophil granulation and differentiation (Ohtsu et al., 1993; Zimmermann et al., 2000).
Half-million cells were aliquoted per point in a 24 well plate; each experiment was performed in triplicate and carried out in parallel with eosinophils differentiated and non differentiated with PMA (25 ng/mL, 24 h). Cells were suspended in low serum medium (RPMI-1640, 0.1% (v/v) FBS). TNF-α was used to induce cytokine secretion as previously described by Steube et al. (2000), and the net release was obtained by comparison to the basal (non-TNF-α treated). In the first experiment we evaluated the concentration and time relation between TNF-α stimulation and cytokine release. Therefore, 5, 10, and 25 ng/mL of TNF-α was administered to the cells at 0, ½, 1, 2, 3, 6, 12 and 24 h (data not shown). An aliquot of 150 μL of supernate was collected for cytokines' analysis. […] Differentiated and non-differentiated EoL-1 cells were exposed from 0.1 to 2.3 mM levocabastine ([…]Levocabastine 0.05% solution eye drops containing cyclodextrins, without benzalkonium chloride), and aliquots of the supernates were collected after 12 and 24 h. The content of cytokines at time zero was estimated by treating the cells with 400 nM calcimycin (A-23187), which is a cytolytic agent that frees all the mediators from the cytoplasmic compartment. In addition, for each experiment we tested the effect of the vehicle, which was added to the wells in a concentration equal to the maximum amount used for drug dilution.
Samples (supernates 12 and 24 h) in triplicate were analyzed using Luminex 200™ (Luminex, Austin, Tex.) and Beadview software v1.0 (Upstate Cell Signaling Solutions, Temecula, Calif.).
All data are presented as mean±SEM for the indicated number of experiments. Statistical significance was determined by Newman-Keuls test after ANOVA using GraphPad Prism (version 3.0; GraphPad Software Inc., San Diego, Calif., USA). P-values<0.05 were considered to be significant.

[1] = 12 h, TNF-α 5 ng + Levocabastine 2 mM vs TNF-α
[2] = 12 h, TNF-α 10 ng + Levocabastine 2 mM vs TNF-α
[3] = 12 h, TNF-α 20 ng + Levocabastine 2 mM vs TNF-α
[4] = 12 h, TNF-α 5, 10, 20 ng + Levocabastine 2 mM vs TNF-α
[5] = 24 h, FN + Levocabastine 2 mM vs FN
[6] = 24 h, Levocabastine 2 mM vs TNF-α

C[C@@H]1CN([C@H]2CC[C@](C#N)(c3ccc(F)cc3)CC2)CC[C@]1(C(=O)O)c1ccccc1 [Levocabastine, levocabastine]
release of IL-8 induced by TNF-α (2 mM, TNF-α 5, 10 and 20 ng, 24 h, differentiated with PMA (FIG. 9)): capable of reducing the release
release of IL-1-ra induced by TNF-α (0.1, 0.5 and 1.0 mM, 12 h, differentiated with PMA (FIG. 2)): capable to prevent the release
release of IL-1β induced by TNF-α (0.1, 0.5 and 1.0 mM, 12 h, differentiated with PMA (FIG. 3)): capable to prevent the release
Fractalkine (PMA), p of decrement [1]: ns
G-CSF (PMA), p of decrement [1]: ns
GM-CSF (PMA), p of decrement [1]: ns
IL-1β (PMA), p of decrement [1]: ns
IL-5 (PMA), p of decrement [1]: ns
IL-6 (PMA), p of decrement [1]: ns
IL-7 (PMA), p of decrement [1]: ns
IL-8 (PMA), p of decrement [1]: ns
IL-10 (PMA), p of decrement [1]: ns
IL-12p40 (PMA), p of decrement [1]: P < 0.001
IP-10 (PMA), p of decrement [1]: ns
MCP-1 (PMA), p of decrement [1]: ns
MIP-1α (PMA), p of decrement [1]: ns
TGF-α (PMA), p of decrement [1]: ns
VEGF (PMA), p of decrement [1]: P < 0.01
Fractalkine (PMA), p of decrement [2]: ns
G-CSF (PMA), p of decrement [2]: ns
GM-CSF (PMA), p of decrement [2]: ns
IL-1β (PMA), p of decrement [2]: ns
IL-5 (PMA), p of decrement [2]: ns
IL-6 (PMA), p of decrement [2]: ns
IL-7 (PMA), p of decrement [2]: ns
IL-8 (PMA), p of decrement [2]: ns
IL-10 (PMA), p of decrement [2]: ns
IL-12p40 (PMA), p of decrement [2]: P < 0.001
IP-10 (PMA), p of decrement [2]: ns
MCP-1 (PMA), p of decrement [2]: ns
MIP-1α (PMA), p of decrement [2]: ns
TGF-α (PMA), p of decrement [2]: ns
VEGF (PMA), p of decrement [2]: ns
Fractalkine (PMA), p of decrement [3]: ns
G-CSF (PMA), p of decrement [3]: ns
GM-CSF (PMA), p of decrement [3]: ns
IL-1β (PMA), p of decrement [3]: ns
IL-5 (PMA), p of decrement [3]: ns
IL-6 (PMA), p of decrement [3]: ns
IL-7 (PMA), p of decrement [3]: ns
IL-8 (PMA), p of decrement [3]: ns
IL-10 (PMA), p of decrement [3]: ns
IL-12p40 (PMA), p of decrement [3]: P < 0.001
IP-10 (PMA), p of decrement [3]: ns
MCP-1 (PMA), p of decrement [3]: ns
MIP-1α (PMA), p of decrement [3]: ns
TGF-α (PMA), p of decrement [3]: ns
VEGF (PMA), p of decrement [3]: ns
IL-1ra (PMA), p of decrement [4]: increase of cytokine secretion
IL-1α (PMA), p of decrement [4]: increase of cytokine secretion
MIP-1β (PMA), p of decrement [4]: increase of cytokine secretion
RANTES (PMA), p of decrement [4]: increase of cytokine secretion
Fractalkine (PMA), p of decrement (12 h, TNF-α vs Lev 0.1 mM): ns
IL-1ra (PMA), p of decrement (12 h, TNF-α vs Lev 0.1 mM): p < 0.01
IL-1α (PMA), p of decrement (12 h, TNF-α vs Lev 0.1 mM): ns
IL-1β (PMA), p of decrement (12 h, TNF-α vs Lev 0.1 mM): ns
IL-5 (PMA), p of decrement (12 h, TNF-α vs Lev 0.1 mM): ns
IL-7 (PMA), p of decrement (12 h, TNF-α vs Lev 0.1 mM): ns
IL-8 (PMA), p of decrement (12 h, TNF-α vs Lev 0.1 mM): ns
IP-10 (PMA), p of decrement (12 h, TNF-α vs Lev 0.1 mM): ns
MCP-1 (PMA), p of decrement (12 h, TNF-α vs Lev 0.1 mM): ns
MIP-1β (PMA), p of decrement (12 h, TNF-α vs Lev 0.1 mM): ns
RANTES (PMA), p of decrement (12 h, TNF-α vs Lev 0.1 mM): ns
VEGF (PMA), p of decrement (12 h, TNF-α vs Lev 0.1 mM): ns
Fractalkine (PMA), p of decrement (12 h, TNF-α vs Lev 0.5 mM): ns
IL-1ra (PMA), p of decrement (12 h, TNF-α vs Lev 0.5 mM): p < 0.001
IL-1α (PMA), p of decrement (12 h, TNF-α vs Lev 0.5 mM): ns
IL-1β (PMA), p of decrement (12 h, TNF-α vs Lev 0.5 mM): ns
IL-5 (PMA), p of decrement (12 h, TNF-α vs Lev 0.5 mM): ns
IL-7 (PMA), p of decrement (12 h, TNF-α vs Lev 0.5 mM): ns
IL-8 (PMA), p of decrement (12 h, TNF-α vs Lev 0.5 mM): ns
IP-10 (PMA), p of decrement (12 h, TNF-α vs Lev 0.5 mM): p < 0.01
MCP-1 (PMA), p of decrement (12 h, TNF-α vs Lev 0.5 mM): ns
MIP-1β (PMA), p of decrement (12 h, TNF-α vs Lev 0.5 mM): ns
RANTES (PMA), p of decrement (12 h, TNF-α vs Lev 0.5 mM): ns
VEGF (PMA), p of decrement (12 h, TNF-α vs Lev 0.5 mM): ns
Fractalkine (PMA), p of decrement (12 h, TNF-α vs Lev 1.0 mM): ns
IL-1ra (PMA), p of decrement (12 h, TNF-α vs Lev 1.0 mM): p < 0.001
IL-1α (PMA), p of decrement (12 h, TNF-α vs Lev 1.0 mM): ns
IL-1β (PMA), p of decrement (12 h, TNF-α vs Lev 1.0 mM): ns
IL-5 (PMA), p of decrement (12 h, TNF-α vs Lev 1.0 mM): ns
IL-7 (PMA), p of decrement (12 h, TNF-α vs Lev 1.0 mM): ns
IL-8 (PMA), p of decrement (12 h, TNF-α vs Lev 1.0 mM): ns
IP-10 (PMA), p of decrement (12 h, TNF-α vs Lev 1.0 mM): p < 0.05
MCP-1 (PMA), p of decrement (12 h, TNF-α vs Lev 1.0 mM): ns
MIP-1β (PMA), p of decrement (12 h, TNF-α vs Lev 1.0 mM): ns
RANTES (PMA), p of decrement (12 h, TNF-α vs Lev 1.0 mM): ns
VEGF (PMA), p of decrement (12 h, TNF-α vs Lev 1.0 mM): p < 0.05
Fractalkine (PMA), p of decrement (12 h, TNF-α vs Lev 2.3 mM): ns
IL-1ra (PMA), p of decrement (12 h, TNF-α vs Lev 2.3 mM): ns
IL-1α (PMA), p of decrement (12 h, TNF-α vs Lev 2.3 mM): ns
IL-1β (PMA), p of decrement (12 h, TNF-α vs Lev 2.3 mM): ns
IL-5 (PMA), p of decrement (12 h, TNF-α vs Lev 2.3 mM): ns
IL-7 (PMA), p of decrement (12 h, TNF-α vs Lev 2.3 mM): ns
IL-8 (PMA), p of decrement (12 h, TNF-α vs Lev 2.3 mM): ns
IP-10 (PMA), p of decrement (12 h, TNF-α vs Lev 2.3 mM): ns
MCP-1 (PMA), p of decrement (12 h, TNF-α vs Lev 2.3 mM): ns
MIP-1β (PMA), p of decrement (12 h, TNF-α vs Lev 2.3 mM): ns
RANTES (PMA), p of decrement (12 h, TNF-α vs Lev 2.3 mM): ns
VEGF (PMA), p of decrement (12 h, TNF-α vs Lev 2.3 mM): p < 0.01
MIP-1α (PMA), change of secretion (12 h, TNF-α vs Lev 0.1-2.3 mM): concentration dependent increase of
MIP-1α (PMA), p of increase (12 h, TNF-α vs Lev 0.1-2.3 mM): cytokine secretion p < 0.001
Fractalkine (PMA), p of decrement [5]: Increase
G-CSF (PMA), p of decrement [5]: Increase
GM-CSF (PMA), p of decrement [5]: ns
IL-1ra (PMA), p of decrement [5]: Increase
IL-1α (PMA), p of decrement [5]: Increase
IL-1β (PMA), p of decrement [5]: ns
IL-5 (PMA), p of decrement [5]: ns
IL-6 (PMA), p of decrement [5]: ns
IL-7 (PMA), p of decrement [5]: Increase
IL-8 (PMA), p of decrement [5]: Increase
IL-10 (PMA), p of decrement [5]: ns
IL-12p40 (PMA), p of decrement [5]: P < 0.01
IP-10 (PMA), p of decrement [5]: ns
MCP-1 (PMA), p of decrement [5]: Increase
MIP-1α (PMA), p of decrement [5]: Increase
MIP-1β (PMA), p of decrement [5]: Increase
RANTES (PMA), p of decrement [5]: Increase
TGF-α (PMA), p of decrement [5]: ns
VEGF (PMA), p of decrement [5]: P < 0.001
Fractalkine (PMA), p of decrement [6]: ns
G-CSF (PMA), p of decrement [6]: ns
GM-CSF (PMA), p of decrement [6]: ns
IL-1ra (PMA), p of decrement [6]: Increase
IL-1α (PMA), p of decrement [6]: Increase
IL-1β (PMA), p of decrement [6]: ns
IL-5 (PMA), p of decrement [6]: ns
IL-6 (PMA), p of decrement [6]: ns
IL-7 (PMA), p of decrement [6]: ns
IL-8 (PMA), p of decrement [6]: Increase
IL-10 (PMA), p of decrement [6]: ns

From patent US20130289070A1, “Use of Levocabastine for Modulating Generation of Pro-Inflammatory Cytokines” (Bausch & Lomb Incorporated, priority 2007, published 2013)
